System: formation of kallikrein
Experiment: Inhibitory action against the formation of kallikrein (kaolin-activated human plasma, synthetic substrate)
Assay type: biochemical
Conditions: human plasma diluted with saline, kaolin activation, substrate D-Pro-Phe-Arg-p-nitroaniline
Protocol: Kallikrein is a group of proteinase widely distributed in the plasma and tissues of various kinds of animals. […] The inhibitory action of the substance of the present invention against the formation of kallikrein was assayed according to the method described in Example 1 of European Patent Publication No.0259857. That is, in the primary reaction, kaolin suspension was added to the human plasma diluted with physiological saline. After a certain while, Lima Bean trypsin inhibitor was added to terminate the activation of kallikrein. In the second reaction, the amount of kallikrein formed in the primary reaction was measured by the use of a synthetic substrate specific to kallikrein, such as D-Pro-Phe-Arg-p-nitroaniline. In the above reaction system, the activity of the test substance to inhibit the formation of kallikrein was measured by mixing the test substance with the human plasma prior to addition of kaolin suspension.

Compound: CC(C(=O)O)c1cccc(C(=O)c2ccccc2)c1 (stereo not shown) [Ketoprofen]
- IC50 = Concentration 50% inhibiting the formation of kallikrein: 700 µg/mL

— patent US5057324A, “Kallikrein inhibitor substance, a process for preparation and pharmaceutical compositions thereof” (priority 1987, dated 1991)
